Data: patent US9738653B2, “Fused furans for the treatment of hepatitis C” (BRISTOL-MYERS SQUIBB COMPANY, priority 2013, dated 2017)

What was measured:
[1] = target: T1, HCV NS5B genotype 1b (Con1) (Hepatitis C virus genotype 1b, UniProt Q9WMX2); assay: HCV NS5B RdRp enzyme assay; format: biochemical; conditions: 1b enzyme, 24 hours at 30° C.
T1 construct: Each untagged protein was expressed with an 18 amino acid C-terminal truncation to enhance the solubility; made in house; host or cells: E. coli BL21(DE3), pET21a
Protocol: The cDNA encoding NS5B proteins of HCV genotype 1b (Con1), a genotype 1b variant with amino acid 316 mutated from cysteine to asparagine, and genotype 2a (JFH-1), were cloned into the pET21a expression vector. Each untagged protein was expressed with an 18 amino acid C-terminal truncation to enhance the solubility. The E. coli competent cell line BL21(DE3) was used for expression of the protein. Cultures were grown at 37° C. for ˜4 hours until the cultures reached an optical density of 2.0 at 600 nm. The cultures were cooled to 20° C. and induced with 1 mM IPTG. Fresh ampicillin was added to a final concentration of 50 μg/mL and the cells were grown overnight at 20° C.
The lysis buffer consisted of 20 mM Tris-HCl, pH 7.4, 500 mM NaCl, 0.5% triton X-100, 1 mM DTT, 1 mM EDTA, 20% glycerol, 0.5 mg/mL lysozyme, 10 mM MgCl2, 15 ug/mL deoxyribonuclease I, and Complete™ protease inhibitor tablets (Roche). After addition of the lysis buffer, frozen cell pellets were resuspended using a tissue homogenizer. To reduce the viscosity of the sample, aliquots of the lysate were sonicated on ice using a microtip attached to a Branson sonicator. The sonicated lysate was centrifuged at 100,000×g for 30 minutes at 4° C. and filtered through a 0.2 μm filter unit (Corning).
The protein was purified using two sequential chromatography steps: Heparin sepharose CL-6B and polyU sepharose 4B. The chromatography buffers were identical to the lysis buffer but contained no lysozyme, deoxyribonuclease I, MgCl2 or protease inhibitor and the NaCl concentration of the buffer was adjusted according to the requirements for charging the protein onto the column. Each column was eluted with a NaCl gradient which varied in length from 5-50 column volumes depending on the column type. […] The enzyme was aliquoted and stored at −80° C.
An on-bead solid phase homogeneous assay was used in a 384-well format to assess NS5B inhibitors (WangY-K, Rigat K, Roberts S, and Gao M (2006) Anal Biochem, 359: 106-111). The biotinylated oligo dT12 primer was captured on streptavidin-coupled imaging beads (GE, RPNQ0261) by mixing primer and beads in 1× buffer and incubating at room temperature for three hours. Unbound primer was removed after centrifugation. The primer-bound beads were resuspended in 3× reaction mix (20 mM Hepes buffer, pH 7.5, dT primer coupled beads, poly A template, ^3H-UTP, and RNAse inhibitor (Promega N2515)). Compounds were serially diluted 1:3 in DMSO and aliquoted into assay plates. Equal volumes (5 μL) of water, 3× reaction mix, and enzyme in 3× assay buffer (60 mM Hepes buffer, pH 7.5, 7.5 mM MgCl2, 7.5 mM KCl, 3 mM DTT, 0.03 mg/mL BSA, 6% glycerol) were added to the diluted compound on the assay plate. Final concentration of components in 384-well assay: 0.36 nM template, 15 nM primer, 0.29 μM ^3H-UTP (0.3 μCi, 1.6 U/μL RNAse inhibitor, 7 nM NS5B enzyme, 0.01 mg/mL BSA, 1 mM DTT, and 0.33 μg/μL beads, 20 mM Hepes buffer, pH 7.5, 2.5 mM MgCl2, 2.5 mM KCl, and 0.1% DMSO.
Reactions were allowed to proceed for 24 hours at 30° C. and terminated by the addition of 50 mM EDTA (5 μL). After incubating for at least 15 minutes, plates were read on an Amersham LEADseeker multimodality imaging system.
IC50 values for compounds were determined using ten different [I]. IC50 values were calculated from the inhibition using the four-parameter logistic formula y=A+((B−A)/(1+((C/x)^D))), where A and B denote minimal and maximal % inhibition, respectively, C is the IC50, D is hill slope and x represents compound concentration.

[2] = test system: genotype 1b (Con-1) HCV replicon in Huh-7 cells; assay: HCV replicon luciferase assay; format: cell-based; conditions: 1b replicon, Renilla luciferase, 3 days incubation
Protocol: The cell lines used to evaluate compounds consist of a human hepatocyte derived cell line (Huh-7) that constitutively expresses a genotype 1b (Con-1) HCV replicon or a genotype 1b (Con-1) HCV replicon with an asparagine replacing the cysteine at amino acid 316, or a genotype 2a (JFH-1) replicon, containing a Renilla luciferase reporter gene. These cells were maintained in Dulbecco's modified Eagle medium (DMEM) containing 10% FBS, 100 U/mL penicillin/streptomycin and 1.0 mg/mL G418.
To evaluate compound efficacy, titrated compounds were transferred to sterile 384-well tissue culture treated plates, and the plates were seeded with HCV replicon cells ([…] at a density of 2.4×10^3 cells/well) in DMEM containing 4% FBS (final DMSO concentration at 0.5%). After 3 days incubation at 37° C., cells were analyzed for Renilla Luciferase activity using the EnduRen substrate (Promega cat #E6485) according to the manufacturer's directions. Briefly, the EnduRen substrate was diluted in DMEM and then added to the plates to a final concentration of 7.5 μM. The plates were incubated for at least 1 h at 37° C. then read on a Viewlux Imager (PerkinElmer) using a luminescence program. The 50% effective concentration (EC50) was calculated using the four-parameter logistic formula noted above.

T1 sequence (Q9WMX2 2420-2992): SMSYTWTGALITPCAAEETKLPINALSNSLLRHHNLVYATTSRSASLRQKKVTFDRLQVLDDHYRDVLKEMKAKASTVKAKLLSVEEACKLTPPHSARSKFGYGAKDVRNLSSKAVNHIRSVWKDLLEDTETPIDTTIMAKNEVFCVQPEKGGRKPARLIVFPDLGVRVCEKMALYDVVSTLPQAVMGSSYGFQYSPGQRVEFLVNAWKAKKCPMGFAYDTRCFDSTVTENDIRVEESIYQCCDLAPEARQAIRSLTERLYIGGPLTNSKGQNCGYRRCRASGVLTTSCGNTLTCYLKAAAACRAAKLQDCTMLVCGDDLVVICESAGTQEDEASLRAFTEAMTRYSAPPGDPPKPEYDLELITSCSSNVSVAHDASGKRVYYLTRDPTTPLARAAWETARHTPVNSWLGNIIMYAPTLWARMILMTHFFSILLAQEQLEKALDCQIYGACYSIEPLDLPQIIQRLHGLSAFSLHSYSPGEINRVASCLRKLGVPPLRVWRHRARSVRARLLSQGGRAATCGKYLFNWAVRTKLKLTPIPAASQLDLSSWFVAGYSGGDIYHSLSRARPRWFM

| SMILES | IC50 [1] | EC50 ([2]; Hepatitis C virus, Huh-7, 72 h) | EC50 [2] |
| --- | --- | --- | --- |
| CNC(=O)c1c(-c2ccc(F)cc2)oc2nc(NCC(F)(F)F)c(-c3ccc(F)c(C(=O)NC45CC(C4)C5)c3)cc12 | 9.08 nM | 4.34 nM |  |
| CNC(=O)c1c(-c2ccc(F)cc2)oc2nc(CCC(F)(F)F)c(-c3cc(F)cc(C(=O)NC45CC(C4)C5)c3)cc12 | 30 nM | 10 nM |  |
| CNC(=O)c1c(-c2ccc(F)cc2)oc2nc(CCC(F)(F)F)c(-c3ccc(OC)c(C(=O)NC45CC(C4)C5)c3)cc12 | 10 nM | 9.23 nM |  |
| CNC(=O)c1c(-c2ccc(F)cc2)oc2nc(CCC(F)(F)F)c(-c3ccc(F)c(C(=O)NC45CC(C4)C5)c3)cc12 | 9.4 nM | 5.05 nM |  |
| CNC(=O)c1c(-c2ccc(F)cc2)oc2nc(CCC(F)(F)F)c(-c3cccc(C(=O)NC45CC(C4)C5)c3)cc12 | 5.85 nM | 4.07 nM |  |
| CCNc1cc2oc(-c3ccc(F)cc3)c(C(=O)NC)c2cc1-c1cc(C(=O)NC23CC(C2)C3)c(F)cc1F | 20 nM | 10 nM |  |
| CNC(=O)c1c(-c2ccc(F)cc2)oc2nc(OC)c(-c3ccc(F)c(C(=O)NC45CC(C4)C5)c3)cc12 | 90 nM | 20 nM |  |
| CNC(=O)c1c(-c2ccc(F)cc2)oc2cc(CCC(F)(F)F)c(-c3ccc(F)c(C(=O)NC45CC(C4)C5)c3)cc12 | 30 nM | 10 nM |  |
| CNC(=O)c1c(-c2ccc(F)cc2)oc2nc(CCC(F)(F)F)c(-c3csc(C(=O)NC45CC(C4)C5)c3)cc12 |  | 20 nM |  |
| CNC(=O)c1c(-c2ccc(F)cc2)oc2nc(CCC(F)(F)F)c(-c3cncc(C(=O)NC45CC(C4)C5)c3)cc12 | 20 nM | 3.3 nM |  |
| CCCc1cc2oc(-c3ccc(F)cc3)c(C(=O)NC)c2cc1-c1ccc(F)c(C(=O)NC23CC(C2)C3)c1 | 10 nM | 8.79 nM |  |
| CNC(=O)c1c(-c2ccc(F)cc2)oc2nc(NCC(F)(F)F)c(-c3ccc(OC)c(C(=O)NC45CC(C4)C5)c3)cc12 | 20 nM | 3.72 nM |  |
| CNC(=O)c1c(-c2ccc(F)cc2)oc2cc(CCC(F)(F)F)c(-c3cc(C(=O)NC45CC(C4)C5)c(OC)cc3C)cc12 | 50 nM | 40 nM |  |
| CNC(=O)c1c(-c2ccc(F)cc2)oc2cc(CCC(F)(F)F)c(-c3cc(C(=O)NC45CC(C4)C5)c(F)cc3C)cc12 | 20 nM | 20 nM |  |
| CCCc1cc2oc(-c3ccc(F)cc3)c(C(=O)NC)c2cc1-c1cc(C(=O)NC23CC(C2)C3)c(F)cc1C | 20 nM | 30 nM |  |
| CCCc1cc2oc(-c3ccc(F)cc3)c(C(=O)NC)c2cc1-c1cc(C(=O)NC23CC(C2)C3)c(OC)cc1C | 30 nM | 30 nM |  |
| CNC(=O)c1c(-c2ccc(F)cc2)oc2cc(COC)c(-c3cc(C(=O)NC45CC(C4)C5)c(OC)cc3C)c(F)c12 | 30 nM | 30 nM |  |
| CNC(=O)c1c(-c2ccc(F)cc2)oc2cc([N+](=O)[O-])c(-c3cccc(C(=O)NC45CC(C4)C5)c3)c(F)c12 | 680 nM | 170 nM |  |
| CNC(=O)c1c(-c2ccc(F)cc2)oc2ncc(-c3ccc(F)c(C(=O)NC45CC(C4)C5)c3)cc12 | 220 nM | 50 nM |  |
| CNC(=O)c1c(-c2ccc(F)cc2)oc2nc(NCC(F)(F)F)c(-c3cccc(C(=O)NC45CC(C4)C5)c3)cc12 |  | 3.58 nM |  |
| CNC(=O)c1c(-c2ccc(F)cc2)oc2nc(N(CC(F)(F)F)S(C)(=O)=O)c(-c3cccc(C(=O)NC45CC(C4)C5)c3)cc12 |  | 20 nM |  |
| CNC(=O)c1c(-c2ccc(F)cc2)oc2nc(NCC(F)(F)F)c(-c3cc(C(=O)NC45CC(C4)C5)ccc3OC)cc12 |  | 9.14 nM |  |

| SMILES | IC50 [1] | EC50 ([2]; Hepatitis C virus, Huh-7, 72 h) | EC50 [2] |
| --- | --- | --- | --- |
| CNC(=O)c1c(-c2ccc(F)cc2)oc2cc(COC)c(-c3cccc(C(=O)NC45CC(C4)C5)c3)cc12 |  | 6.21 nM |  |
| CNC(=O)c1c(-c2ccc(F)cc2)oc2cc(CS(C)(=O)=O)c(-c3cccc(C(=O)NC45CC(C4)C5)c3)cc12 |  | 70 nM |  |
| CNC(=O)c1c(-c2ccc(F)cc2)oc2cc(CCC(F)(F)F)c(-c3cccc(C(=O)NC45CC(C4)C5)c3)cc12 |  | 30 nM |  |
| CNC(=O)c1c(-c2ccc(F)cc2)oc2cc(CCCOC(=O)c3ccccc3)c(-c3cccc(C(=O)NC45CC(C4)C5)c3)cc12 |  | 140 nM |  |
| CNC(=O)c1c(-c2ccc(F)cc2)oc2cc(CC(=O)O)c(-c3cccc(C(=O)NC45CC(C4)C5)c3)cc12 |  | > 10000 nM |  |
| CNC(=O)c1c(-c2ccc(F)cc2)oc2cc(CC(=O)O)c(-c3ccc(F)c(C(=O)NC45CC(C4)C5)c3)cc12 |  | 8090 nM |  |
| CNC(=O)c1c(-c2ccc(F)cc2)oc2cc(N)c(-c3ccc(OC)c(C(=O)NC45CC(C4)C5)c3)cc12 |  | 10 nM |  |
| CNC(=O)c1c(-c2ccc(F)cc2)oc2cc(CC(=O)OC)c(-c3ccc(F)c(C(=O)NC45CC(C4)C5)c3)cc12 |  | 20 nM |  |
| CNC(=O)Cc1cc2oc(-c3ccc(F)cc3)c(C(=O)NC)c2cc1-c1cccc(C(=O)NC23CC(C2)C3)c1 |  | 50 nM |  |
| CNC(=O)c1c(-c2ccc(F)cc2)oc2cc(CC(=O)N(C)C)c(-c3cccc(C(=O)NC45CC(C4)C5)c3)cc12 |  | 310 nM |  |
| CNC(=O)c1c(-c2ccc(F)cc2)oc2cc(CC(N)=O)c(-c3ccc(F)c(C(=O)NC45CC(C4)C5)c3)cc12 |  | 10 nM |  |
| CNC(=O)Cc1cc2oc(-c3ccc(F)cc3)c(C(=O)NC)c2cc1-c1ccc(F)c(C(=O)NC23CC(C2)C3)c1 |  | 50 nM |  |
| CNC(=O)c1c(-c2ccc(F)cc2)oc2cc(CCC(F)(F)F)c(-c3cccc(C(=O)NC45CC(C4)C5)c3)c(F)c12 |  | 10 nM |  |
| CNC(=O)c1c(-c2ccc(F)cc2)oc2cc(CC(=O)N(C)C)c(-c3ccc(F)c(C(=O)NC45CC(C4)C5)c3)cc12 |  | 520 nM |  |
| CNC(=O)c1c(-c2ccc(F)cc2)oc2cc(CS(C)(=O)=O)c(-c3ccc(F)c(C(=O)NC45CC(C4)C5)c3)cc12 |  | 70 nM |  |
| CNC(=O)c1c(-c2ccc(F)cc2)oc2cc(CCC(F)(F)F)c(-c3ccc(F)c(C(=O)NC45CC(C4)C5)c3)c(F)c12 |  | 40 nM |  |
| CNC(=O)c1c(-c2ccc(F)cc2)oc2cc(OCC(F)(F)F)c(-c3cccc(C(=O)NC45CC(C4)C5)c3)cc12 |  | 10 nM |  |
| CNC(=O)c1c(-c2ccc(F)cc2)oc2cc(CCNC(=O)OC)c(-c3cccc(C(=O)NC45CC(C4)C5)c3)cc12 | 20 nM | 20 nM |  |
| CNC(=O)c1c(-c2ccc(F)cc2)oc2cc(CCNS(C)(=O)=O)c(-c3cccc(C(=O)NC45CC(C4)C5)c3)cc12 | 10 nM | 20 nM |  |
| CNC(=O)c1c(-c2ccc(F)cc2)oc2cc(OCC(F)(F)F)c(-c3ccc(OC)c(C(=O)NC45CC(C4)C5)c3)cc12 | 4.55 nM | 10 nM |  |
| CCC(C)c1cc2oc(-c3ccc(F)cc3)c(C(=O)NC)c2cc1-c1cccc(C(=O)NC23CC(C2)C3)c1 (stereo not shown) [drawing 305] |  |  | 20 nM |
